Measured values taken from US20240042065A1, “THERANOSTIC AGENTS” (priority 2022, published 2024).

Assay: NMR relaxivity studies (R1 relaxivity)
Type: physicochemical
Settings: Gd(III) complexes of DTPA analogues
Experimental: The potential of L1 and L2 to be used in magnetic resonance imaging/Optical Imaging (MRI/OI) was evaluated by measuring their (a) thermodynamic stability by stability constants with potentiometric titrations; (b) R1 relaxivities by NMR relaxivity studies and (c) spectrophotometric (luminescence) investigations.
The diagnostic moiety of the theranostic agent of the present invention enhances MR images when the patient is subjected to the magnetic field of the MR scanning machine by altering the T1 relaxation of local water protons. The paramagnetic relaxation of water protons arises as a result of dipole-dipole interactions between the proton nuclear spins and that of the oscillating magnetic field of MR machine caused by the interaction with the unpaired electron spins of paramagnetic metal ion in the complex, under pulse of radio frequency. The overall paramagnetic water proton relaxation rate enhancement (i.e. proton relaxivity) is governed by two factors, namely inner sphere and outer sphere contributions. […] This profile measures molecular dynamics taking place within the said complex understudy in a quantitative manner in the time scales of milliseconds to nanoseconds. […]

Question: Which “relaxivity (in words)” value does the source give for `O=C(O)CN(CCN(CCN(CC(=O)O)CC(=O)O)CCN1C(=O)c2cccc3cccc(c23)C1=O)CC(=O)O` [Type A] here?
Answer: high relaxivity
